Results reported in PubChem BioAssay AID192 (DTP/NCI, 2004).
Values joined by “and” are separate entries in the source; they are usually repeats but may differ in a detail not shown here. Identical values can stand only once. Toxic doses and inconclusive results are not listed. The calls were made as follows: active = survival T/C of 150% or more; inactive = T/C below 125% in these data.

Tested on: BDF1 mice, B16 melanoma ip, median survival T/C
Assay: NCI In Vivo Anticancer Drug Screen. Data for tumor model B16 Melanoma (intraperitoneal) in B6D2F1 (BDF1) mice
Conditions: endpoint: median survival time, higher = longer survival
Summary of the method: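 Each result divides a survival or tumor-size measurement in the compound-treated group by the same measurement in the vehicle group.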

[1] = dose: 6.25 mg/kg/injection, schedule: Q01DX009 (ip), vehicle: saline
[2] = dose: 12.5 mg/kg/injection, schedule: Q01DX009 (ip), vehicle: saline
[3] = dose: 12.5 mg/kg/injection, schedule: Q01DX009 (ip), vehicle: saline with Tween-80
[4] = dose: 25.0 mg/kg/injection, schedule: Q01DX009 (ip), vehicle: saline with Tween-80
[5] = dose: 50.0 mg/kg/injection, schedule: Q01DX009 (ip), vehicle: saline with Tween-80
[6] = dose: 25.0 mg/kg/injection, schedule: Q01DX009 (ip), vehicle: saline
[7] = dose: 50.0 mg/kg/injection, schedule: Q01DX009 (ip), vehicle: saline
[8] = dose: 100.0 mg/kg/injection, schedule: Q01DX009 (ip), vehicle: saline
[9] = dose: 25.0 mg/kg/injection, schedule: Q01DX009 (ip), vehicle: Klucel (hydroxypropylcellulose) (HPC)
[10] = dose: 50.0 mg/kg/injection, schedule: Q01DX009 (ip), vehicle: Klucel (hydroxypropylcellulose) (HPC)
[11] = dose: 100.0 mg/kg/injection, schedule: Q01DX009 (ip), vehicle: Klucel (hydroxypropylcellulose) (HPC)
[12] = dose: 400.0 mg/kg/injection, schedule: Q01DX009 (ip), vehicle: Klucel (hydroxypropylcellulose) (HPC)
[13] = dose: 100.0 mg/kg/injection, schedule: Q01DX009 (ip), vehicle: saline with Tween-80
[14] = dose: 12.5 mg/kg/injection, schedule: Q01DX009 (ip), vehicle: Klucel (hydroxypropylcellulose) (HPC)
[15] = dose: 200.0 mg/kg/injection, schedule: Q01DX009 (ip), vehicle: Klucel (hydroxypropylcellulose) (HPC)
[16] = dose: 0.75 mg/kg/injection, schedule: Q01DX009 (ip), vehicle: saline with Tween-80
[17] = dose: 1.5 mg/kg/injection, schedule: Q01DX009 (ip), vehicle: saline with Tween-80
[18] = dose: 17.5 mg/kg/injection, schedule: Q01DX009 (ip), vehicle: Klucel (hydroxypropylcellulose) (HPC)
[19] = dose: 400.0 mg/kg/injection, schedule: Q01DX009 (ip), vehicle: saline with Tween-80
[20] = dose: 100.0 mg/kg/injection, schedule: Q04DX003 (ip), vehicle: Klucel (hydroxypropylcellulose) (HPC)
[21] = dose: 200.0 mg/kg/injection, schedule: Q04DX003 (ip), vehicle: Klucel (hydroxypropylcellulose) (HPC)
[22] = dose: 400.0 mg/kg/injection, schedule: Q04DX003 (ip), vehicle: Klucel (hydroxypropylcellulose) (HPC)

Measured: T/C

COc1cccc(/C=N\N=C\c2cccc(OC)c2OC)c1OC
inactive: [1] 95 % of control | [2] 97 % of control

CCCC(C(CC)CN(C)C)N(C)C (stereo unspecified)
inactive: [3] 90 % of control | [4] 96 % of control | [5] 94 % of control

NC(=S)c1cn(C2OC(CO)C(O)C2O)c2ncnc(N)c12 (stereo unspecified)
inactive: dose: 2.5 mg/kg/injection, schedule: Q01DX009 (ip), vehicle: saline 89 % of control | dose: 5.0 mg/kg/injection, schedule: Q01DX009 (ip), vehicle: saline 91 % of control

Cc1[nH]c(=S)sc1C
inactive: [6] 102 % of control | [7] 91 % of control | [8] 102 % of control

O=C(COc1ccc(Cl)cc1)Nc1cccnc1
inactive: [9] 90 % of control | [10] 94 % of control

O=C(OC1CCCCCCC1)C(F)(F)F
inactive: [11] 100 % of control | [12] 117 % of control

O=C(O)CC1(CC(=O)O)CCCCC1
inactive: [5] 100 % of control | [13] 98 % of control

CCCCCCCCCCCCCCCCCCN(C)C
inactive: dose: 6.25 mg/kg/injection, schedule: Q01DX009 (ip), vehicle: Klucel (hydroxypropylcellulose) (HPC) 104 % of control | [14] 107 % of control | [9] 89 % of control and 101 % of control

O=C(CCl)NC(Cc1ccc(O)cc1)C(=O)O (stereo unspecified)
inactive: [4] 105 % of control | [5] 101 % of control | [13] 95 % of control

CN(C)CCCNC(=O)Nc1ccccc1
inactive: [11] 100 % of control | [15] 92 % of control

CC(=O)[O][Hg][c]1cc(-c2ccc(N=Nc3c(S(=O)(=O)O)cc4cccc(N)c4c3O)cc2)ccc1N=Nc1c(S(=O)(=O)O)cc2cccc(N)c2c1O
inactive: [16] 95 % of control | [17] 90 % of control | dose: 1.5 mg/kg/injection, schedule: Q04DX003 (ip), vehicle: saline with Tween-80 102 % of control | dose: 3.0 mg/kg/injection, schedule: Q04DX003 (ip), vehicle: saline with Tween-80 86 % of control

CC(C)[S][Pb]([c]1ccccc1)([c]1ccccc1)[c]1ccccc1
inactive: dose: 0.3 mg/kg/injection, schedule: Q01DX009 (ip), vehicle: gum acacia 97 % of control | dose: 0.6 mg/kg/injection, schedule: Q01DX009 (ip), vehicle: gum acacia 91 % of control | dose: 1.25 mg/kg/injection, schedule: Q01DX009 (ip), vehicle: gum acacia 89 % of control

COC1=C(Br)[C@H](O)[C@](O)(CC#N)C=C1Br
inactive: [18] 105 % of control | [9] 87 % of control | dose: 35.0 mg/kg/injection, schedule: Q01DX009 (ip), vehicle: Klucel (hydroxypropylcellulose) (HPC) 99 % of control | dose: 70.0 mg/kg/injection, schedule: Q01DX009 (ip), vehicle: Klucel (hydroxypropylcellulose) (HPC) 107 % of control

NC1=CC(=O)c2ccccc2C1=O
inactive: [14] 96 % of control | [9] 99 % of control | [10] 101 % of control

CCN(CC)CCSC(=S)N1c2ccccc2Sc2ccccc21
inactive: dose: 1.09 mg/kg/injection, schedule: Q01DX009 (ip), vehicle: Klucel (hydroxypropylcellulose) (HPC) 109 % of control | dose: 2.18 mg/kg/injection, schedule: Q01DX009 (ip), vehicle: Klucel (hydroxypropylcellulose) (HPC) 105 % of control | dose: 4.37 mg/kg/injection, schedule: Q01DX009 (ip), vehicle: Klucel (hydroxypropylcellulose) (HPC) 107 % of control | dose: 8.75 mg/kg/injection, schedule: Q01DX009 (ip), vehicle: Klucel (hydroxypropylcellulose) (HPC) 111 % of control | [18] 100 % of control

N#CC(=C1C=CC(=NO)C=C1)c1ccc(Cl)cc1
inactive: dose: 6.25 mg/kg/injection, schedule: Q01DX009 (ip), vehicle: saline with Tween-80 88 % of control | [3] 95 % of control | [4] 87 % of control | [5] 86 % of control

O=C(NCCCCC(NC(=O)c1ccccc1)C(=O)O)OCc1ccccc1 (stereo unspecified)
inactive: [5] 101 % of control | [13] 96 % of control | dose: 200.0 mg/kg/injection, schedule: Q01DX009 (ip), vehicle: saline with Tween-80 95 % of control | [19] 86 % of control

COCCOC(=O)CCCCC(=O)OCCOC
inactive: [8] 118 % of control | dose: 200.0 mg/kg/injection, schedule: Q01DX009 (ip), vehicle: saline 106 % of control | dose: 400.0 mg/kg/injection, schedule: Q01DX009 (ip), vehicle: saline 114 % of control

O=P(OCc1ccccc1)(OCc1ccccc1)C(Nc1ccccc1)c1ccccc1 (stereo unspecified)
inactive: [10] 97 % of control | [11] 90 % of control | [15] 90 % of control

NC(CO)C(O)c1ccc([N+](=O)[O-])cc1 (stereo unspecified)
inactive: [20] 97 % of control | [21] 95 % of control | [22] 86 % of control

C=C(C)C(=O)Nc1c(C)cccc1C
inactive: [10] 102 % of control | [11] 107 % of control | [15] 108 % of control

COc1cc2oc(=O)ccc2cc1[C@@H]1OC(=O)C2(C)O[C@@H]12 (stereo partly specified)
inactive: dose: 0.63 mg/kg/injection, schedule: Q01DX009 (ip), vehicle: distilled water + Tween-80 103 % of control | dose: 1.25 mg/kg/injection, schedule: Q01DX009 (ip), vehicle: distilled water + Tween-80 95 % of control | dose: 5.0 mg/kg/injection, schedule: Q01DX009 (ip), vehicle: distilled water + Tween-80 102 % of control | dose: 10.0 mg/kg/injection, schedule: Q01DX009 (ip), vehicle: distilled water + Tween-80 97 % of control

Cc1ccc(C)n1-c1ccccc1C(=O)O
inactive: [11] 106 % of control | [15] 96 % of control | [12] 90 % of control

COc1ccccc1N1CCCSC1=Nc1ccccc1
inactive: [14] 98 % of control | [9] 95 % of control | [10] 95 % of control | [11] 100 % of control | [15] 100 % of control

Cc1cccc(C)c1NC(=O)Nc1ccc2c(c1)OCO2
inactive: [20] 92 % of control

C[Si](C)(C)c1c(F)c(F)cc(F)c1F
inactive: [20] 98 % of control | [21] 97 % of control | [22] 97 % of control

OC(Cc1nc2ccccc2s1)(C(F)(F)F)C(F)(F)F
inactive: [13] 111 % of control | dose: 100.0 mg/kg/injection, schedule: Q04DX003 (ip), vehicle: saline with Tween-80 89 % of control | [19] 108 % of control | dose: 400.0 mg/kg/injection, schedule: Q04DX003 (ip), vehicle: saline with Tween-80 102 % of control

CC(=O)[O][Hg][c]1s[c]([Hg][O]C(C)=O)[c]([Hg][O]C(C)=O)[c]1[Hg][O]C(C)=O
inactive: [16] 102 % of control | [17] 92 % of control | dose: 3.0 mg/kg/injection, schedule: Q01DX009 (ip), vehicle: saline with Tween-80 87 % of control | dose: 6.0 mg/kg/injection, schedule: Q01DX009 (ip), vehicle: saline with Tween-80 97 % of control

CCc1cc(O)cc(C)c1Cl
inactive: [3] 95 % of control | [4] 110 % of control | [5] 99 % of control and 106 % of control

CCCCCCCCCc1ccc(OC(=O)CCC)cc1
inactive: [14] 106 % of control | [9] 94 % of control | [12] 87 % of control

O=C=Nc1ccc(Cc2ccc(N=C=O)cc2)cc1
inactive: [12] 123 % of control

NC(=S)n1cccn1
inactive: [4] 96 % of control | [5] 114 % of control | [13] 94 % of control

C/C=C(\C)C(=O)O[C@@H]1c2cc3c(cc2-c2c(cc(OC)c(OC)c2OC)[C@@H]2C(=O)OC[C@@H]12)OCO3
inactive: dose: 1.25 mg/kg/injection, schedule: Q01DX009 (ip), vehicle: Klucel (hydroxypropylcellulose) (HPC) 101 % of control | dose: 2.5 mg/kg/injection, schedule: Q01DX009 (ip), vehicle: Klucel (hydroxypropylcellulose) (HPC) 107 % of control | dose: 5.0 mg/kg/injection, schedule: Q01DX009 (ip), vehicle: Klucel (hydroxypropylcellulose) (HPC) 92 % of control | dose: 10.0 mg/kg/injection, schedule: Q01DX009 (ip), vehicle: Klucel (hydroxypropylcellulose) (HPC) 96 % of control

CC(N)Cc1cn(C)c2ccccc12 (stereo unspecified)
inactive: [1] 122 % of control | [2] 105 % of control | [6] 102 % of control | [7] 105 % of control | [8] 88 % of control
